{"source": "patent US4699903A", "about": "“Therapeutic use of tin diiododeuteroporphyrin” (The Rockefeller University, priority 1987, dated 1987)", "key": {"[1]": {"assay": "Singlet and triplet lifetimes", "format": "physicochemical", "experimental": "(3) Singlet and triplet lifetimes: The singlet lifetime of SnI2 DP was determined to be 23 psec (this is at the lower levels of instrument detection). The singlet lifetimes of SnPP and SnMP are 500-600 p sec. The triplet lifetime of SnI2 DP was determined to be 0.2 millisec. The triplet lifetimes of SnPP and SnMP are 0.5 and 2.5 milliseconds respectively."}, "[2]": {"biological_target": "T1, heme oxygenase (Rattus norvegicus, UniProt P06762)", "T1 sequence (P06762 1-289)": "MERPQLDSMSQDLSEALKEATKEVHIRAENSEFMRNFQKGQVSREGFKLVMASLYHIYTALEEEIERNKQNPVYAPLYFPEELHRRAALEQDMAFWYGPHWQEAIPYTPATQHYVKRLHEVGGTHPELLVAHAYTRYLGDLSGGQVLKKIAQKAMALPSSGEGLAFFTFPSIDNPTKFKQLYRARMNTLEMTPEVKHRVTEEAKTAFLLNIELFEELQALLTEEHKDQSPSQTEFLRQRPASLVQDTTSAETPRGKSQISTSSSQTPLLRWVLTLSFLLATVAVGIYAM", "assay": "Inhibition of heme oxygenase conversion of heme to bilirubin, rat spleen microsomes", "format": "biochemical", "set-up": "using rat spleen microsomes as the source of heme oxygenase; from tissue; host or cells: rat spleen microsomes", "settings": "for inhibition constant compared with that of SnI2 DP: heme oxygenase; for Ki: rat spleen microsomes", "experimental": "In an initial study using rat spleen microsomes as the source of heme oxygenase the ability of SnI2 DP to inhibit the activity of heme oxygenase to convert heme to bilirubin was determined.\nKm=rate constant for heme oxygenase\nKmAPP =rate constant for heme oxygenase in the presence of SnI2 DP"}, "[3]": {"tested_on": "serum bilirubin", "assay": "Serum bilirubin in ALA-treated hyperbilirubinemia, 7-day old suckling rats", "format": "in vivo, rat", "settings": "ALA 50 μmmol/100 g at 0, 4 and 8 hours, sacrificed 16 hours after last ALA", "experimental": "(§1) The next study established the ability of SnI2 DP to inhibit the ability of γ-aminolevulinic acid (ALA) to produce jaundice. This study of the efficacy of SnI2 DP to control hyperbilirubinemia thereby preventing the jaundice which develops in rats treated 7 days after birth with ALA is described by Drummond and Kappas, J. Clin. Invest. 74, 142-149 (1984). In the test, ALA (50 μmmol/100 g body weight) is administered to suckling 7 day old rats at 0, 4 and 8 hours, the animals sacrificed 16 hours after the last administration of ALA, and the serum biliribin measured."}, "[4]": {"tested_on": "heme oxygenase", "assay": "Hepatic heme oxygenase activity in ALA-treated 7-day old suckling rats", "format": "in vivo, rat", "settings": "ALA 50 μmmol/100 g at 0, 4 and 8 hours, sacrificed 16 hours after last ALA", "experimental": "as §1\n(§2) Heme oxygenase was determined as described by Drummond and Kappas Proc. Natl. Acad. Sci. USA 78: 6466(1981)."}, "[5]": {"tested_on": "serum bilirubin", "assay": "Serum bilirubin levels in newborn rats", "format": "in vivo, rat", "experimental": "(§3) The in vivo ability of SnI2 DP to reduce serum bilirubin was established by studies in neonatal rats. The studies were conducted with four separate litters each containing ten neonates.\n(§4) To prepare the solution for parenteral administration, SnI2 DP was taken up in a small volume of 0.2N sodium hydroxide, adjusted to pH 7.4 with 1N hydrochloric acid and made up to final volume with 0.9% sodium chloride. The solution as prepared and used contained a final SnI2 DP concentration of 10 μmol/kg body weight in each 0.1 ml injection volume. Control neonates received 0.1 ml of 0.9% sodium chloride at birth. One group of animals was sacrificed at 24 hours which is normally the peak of bilirubin for neonate rates. The total bilirubin in serum was estimated by the method of Roth, Clin. Chem. Acta, 17 487-492, 1967."}, "[6]": {"biological_target": "T1, heme oxygenase", "assay": "Tissue heme oxygenase activity after simultaneous administration of heme", "format": "in vivo", "set-up": "from tissue", "settings": "heme 6.1 μmol/kg b.w. simultaneously, n = 4", "experimental": "(§5) Simultaneous intraveous (IV) administration of heme (6.1 μmol/kg b.w.) and SnI2 DP was examined in four pairs of bile duct cannulated adult male rats. The effect of simultaneous administration of heme and SnI2 DP on heme levels in bile and tissue heme oxygenase activity are shown in Tables V and VI respectively.\n(§6) Each group was administered heme (6.1 μmol/kg b.w.) simultaneously with either SnI2 DP or saline."}, "[7]": {"biological_target": "T1, heme oxygenase", "assay": "Tissue heme oxygenase activity in bile duct cannulated adult rats", "format": "in vivo", "set-up": "from tissue", "settings": "i.v. 10 μmol/kg b.w., n=5", "experimental": "(§7) In the next in vivo test designed to measure the decrease in bilirubin production, SnI2 DP was administered intravenously to five adult rats, 12-15 weeks old at a dose of 10 μmol/kg body weight. Five control rats were administered saline. The bile duct was cannulated and the bile fluid analyzed for bilirubin content.\n(§8) In addition, the activity of hepatic, renal and splenic heme oxygenase was decreased in bile duct cannulated animals administered SnI2 DP.\n(§9) SnI2 DP administered i.v. at a dose of 10 μmol/kg b.w.\n(§10) When compared to saline treated controls, n=5."}, "[8]": {"tested_on": "heme oxygenase", "assay": "Tissue heme oxygenase activity in newborn rats after SnI2 DP", "format": "in vivo, rat", "experimental": "as §3, §4, §2"}, "[9]": {"tested_on": "heme", "assay": "Heme excretion in bile after simultaneous i.v. heme and SnI2 DP, bile duct cannulated adult male rats", "format": "in vivo, rat", "settings": "heme 6.1 μmol/kg b.w. i.v. simultaneously", "experimental": "as §5, §6"}, "[10]": {"tested_on": "heme oxygenase", "assay": "Tissue heme oxygenase activity in bile duct cannulated adult rats", "format": "in vivo, rat", "settings": "i.v. 10 μmol/kg b.w., n=5", "experimental": "as §7, §8, §9, §10"}, "[11]": {"tested_on": "biliary bilirubin", "assay": "Drop in biliary bilirubin production in bile duct cannulated adult rats", "format": "in vivo, rat", "experimental": "as §7"}, "[12]": {"assay": "Fluorescence characteristics in pyridine", "format": "physicochemical", "experimental": "(2) Fluorescence characteristics: A 1 μM solution of SnI2 DP in pyridine was excited at 400 nm and 2 emission peaks were detected at 578 nm and 635 nm. The measurable fluorescence represents less than 5% of that found for SnPP and SnMP."}, "[13]": {"tested_on": "heme oxygenase", "assay": "Tissue heme oxygenase activity after simultaneous administration of heme", "format": "in vivo, rat", "settings": "heme 6.1 μmol/kg b.w. simultaneously, n = 4", "experimental": "as §5, §6"}}, "note": "Where “and” joins values, the source holds several entries; their conditions need not be identical. Equal entries are not always repeated. Where two headings read alike, the source gives them in different places."}
{"compound": "tin mesoporphyrin [SnMP]", "values": [{"measurement": "singlet lifetime", "setting": "[1]", "value": "500-600 psec"}, {"measurement": "triplet lifetime", "setting": "[1]", "value": 2.5, "unit": "millisec"}, {"measurement": "inhibition constant compared with that of SnI2 DP", "setting": "[2]", "value": "approximately the same"}]}
{"compound": "NCC(=O)CCC(=O)O", "note": "[ALA, γ-aminolevulinic acid, reference compound]", "values": [{"measurement": "Serum Bilirubin", "setting": "[3]", "value": "0.99 ± 0.06", "unit": "mg/dL"}, {"measurement": "Heme Oxygenase Liver", "setting": "[4]", "value": "11.29 ± 0.33", "unit": "nmol/mg p h"}]}
{"compound": "C=Cc1c2[n-]c(c1C)/C=c1\\[n-]/c(c(C)c1C=C)=C\\c1[n-]c(c(CCC(=O)O)c1C)C=c1[n-]/c(c(C)c1CCC(=O)O)=C\\2.[Sn+4]", "note": "[SnPP, tin protoporphyrin IX]", "values": [{"measurement": "singlet lifetime", "setting": "[1]", "value": "500-600 psec"}, {"measurement": "triplet lifetime", "setting": "[1]", "value": 0.5, "unit": "millisec"}, {"measurement": "inhibition constant compared with that of SnI2 DP", "setting": "[2]", "value": "approximately the same"}]}
{"compound": "tin diiododeuteroporphyrin [SnI2 DP]", "values": [{"measurement": "Serum Bilirubin", "setting": "[5]; newborn rats, 10 μmol/kg at birth, 24 hours", "value": "0.34 ± 0.02", "unit": "mg/dL"}, {"measurement": "activity in preventing serum bilirubin increase, as % of that of SnMP", "setting": "[5]; rat neonates", "value": "about 10%"}, {"measurement": "activity in preventing serum bilirubin increase, compared with SnPP", "setting": "[5]; rat neonates", "value": "roughly the same"}, {"measurement": "Heme Oxygenase Spleen", "setting": "[6]", "value": "8.15 ± 0.52", "unit": "nmol/mg p h"}, {"measurement": "Serum Bilirubin", "setting": "[3]", "value": "0.54 ± 0.02", "unit": "mg/dL"}, {"measurement": "Heme Oxygenase Spleen", "setting": "[7]", "value": "5.37 ± 1.09", "unit": "nmol/mg p h"}, {"measurement": "kidney heme oxygenase activity", "setting": "[8]; neonates, repeated test, 48 hours after birth", "value": 0.88, "unit": "nmol/mg p h"}, {"measurement": "Heme Oxygenase Kidney", "setting": "[8]; newborn rats, 10 μmol/kg at birth, 24 hours, kidney bulked", "value": 1.13, "unit": "nmol/mg p h"}, {"measurement": "Heme Oxygenase Spleen", "setting": "[8]; newborn rats, 10 μmol/kg at birth, 24 hours, spleen bulked", "value": 3.74, "unit": "nmol/mg p h"}, {"measurement": "Heme Oxygenase Liver", "setting": "[8]; newborn rats, 10 μmol/kg at birth, sacrificed at 24 hours", "value": "8.07 ± 0.06", "unit": "nmol/mg p h"}, {"measurement": "Heme excreted in bile (% of administered dose), Average", "setting": "[9]; average of 4 experiments", "value": "44.9 ± 4.79 % of administered dose"}, {"measurement": "Heme excreted in bile (% of administered dose)", "setting": "[9]; single experiments 1-4", "value": "51.8 % of administered dose and 48.8 % of administered dose and 48.2 % of administered dose and 30.7 % of administered dose"}, {"measurement": "Heme Oxygenase Kidney", "setting": "[10]", "value": "0.45 ± 0.03", "unit": "nmol/mg p h"}, {"measurement": "Heme Oxygenase Liver", "setting": "[10]", "value": "2.06 ± 0.75", "unit": "nmol/mg p h"}, {"measurement": "singlet lifetime", "setting": "[1]", "value": 23, "unit": "psec"}, {"measurement": "triplet lifetime", "setting": "[1]", "value": 0.2, "unit": "millisec"}, {"measurement": "photosensitizing potential compared with SnPP and SnMP", "setting": "[1]; inferred from fluorescence and triplet lifetime", "value": "less photosensitizing potential"}, {"measurement": "Drop in biliary bilirubin production, % decrease", "setting": "[11]; adult rats, 10 μmol/kg i.v., bile duct cannulated, single experiments 1-5", "value": "60% and 35% and 47% and 44% and 48%"}, {"measurement": "average difference between treated and control decline in biliary bilirubin", "setting": "[11]; adult rats, 10 μmol/kg i.v., p<0.01", "value": 21, "unit": "%"}, {"measurement": "ability to lower heme oxygenase activity, serum and bile bilirubin levels, compared with SnMP", "setting": "[11]; rats", "value": "not as effective as SnMP"}, {"measurement": "Heme Oxygenase Liver", "setting": "[4]", "value": "8.29 ± 0.48", "unit": "nmol/mg p h"}, {"measurement": "fluorescence quenched by comparison with SnPP", "setting": "[12]", "value": 95, "unit": "%"}, {"measurement": "measurable fluorescence as % of that found for SnPP and SnMP", "setting": "[12]; 1 μM solution in pyridine, excited at 400 nm", "value": "less than 5%"}, {"measurement": "Ki", "setting": "[2]; Lineweaver Burke plots, average of four determinations, read-out: inhibition constant Ki", "value": "69 ± 7", "unit": "nM"}, {"measurement": "Ki", "setting": "[2]; four separate determinations, read-out: Ki, separate determinations", "value": "57 nM and 88 nM and 62 nM and 70 nM"}, {"measurement": "Heme Oxygenase Kidney", "setting": "[13]", "value": "1.04 ± 0.22", "unit": "nmol/mg p h"}, {"measurement": "Heme Oxygenase Liver", "setting": "[13]", "value": "5.03 ± 0.72", "unit": "nmol/mg p h"}]}
